From DBAASP
≈ marks a conversion by molar mass, not a printed value.

Assays:
Assay in all cases: ≥ marks a high value that may be exact or a test limit, other limits are often not marked, values filed in µg/mL are converted to µM
[1] = tested on: Streptococcus pyogenes KCTC 3096
[2] = tested on: Salmonella typhimurium KCTC 1926
[3] = tested on: Aspergillus fumigatus KCTC 4165
[4] = tested on: Pseudomonas aeruginosa KCTC 1637
[5] = tested on: Bacillus subtilis KCTC 1918
[6] = tested on: Candida albicans TIMM 1768
[7] = tested on: Staphylococcus aureus KCTC 1621
[8] = tested on: Escherichia coli KCTC 1682
Pseudomonas alginovora = tested on: Pseudomonas alginovora
Bacillus megaterium = tested on: Bacillus megaterium
Salmonella typhimurium = tested on: Salmonella typhimurium
Aerococcus viridans = tested on: Aerococcus viridans
[9] = tested on: Pseudoalteromonas carrageenovora ATCC 43555
Escherichia coli D22 = tested on: Escherichia coli D22
Staphylococcus aureus = tested on: Staphylococcus aureus
Enterococcus faecalis = tested on: Enterococcus faecalis
Escherichia coli D31 = tested on: Escherichia coli D31
Escherichia coli 1106 = tested on: Escherichia coli 1106
Micrococcus luteus = tested on: Micrococcus luteus

MIC [1] [µM] | MIC [2] [µM] | MIC [3] [µM] | MIC [4] [µM] | MIC [5] [µM] | MIC [6] [µM] | MIC [7] [µM] | MIC [8] [µM] | MIC (Pseudomonas alginovora) [µM] | MIC (Bacillus megaterium) [µM] | MIC (Salmonella typhimurium) [µM] | MIC (Aerococcus viridans) [µM] | MIC [9] [µM] | MIC (Escherichia coli D22) [µM] | MIC (Staphylococcus aureus) [µM] | MIC (Enterococcus faecalis) [µM] | MIC (Escherichia coli D31) [µM] | MIC (Escherichia coli 1106) [µM] | MIC (Micrococcus luteus) [µM] | Structure (SMILES)
≥ 50 | 12.5 (≈ 26.8 µg/mL) | ≥ 100 | 12.5 (≈ 26.8 µg/mL) | ≥ 50 | ≥ 50 | ≥ 50 | ≥ 50 |  |  |  |  |  |  |  |  |  |  |  | CCC(C)C(NC(=O)C(CCCCN)NC(=O)C(CCCCN)NC(=O)C(CC(C)C)NC(=O)C(CCCCN)NC(=O)C(CCC(=O)O)NC(=O)CN)C(=O)NCC(=O)NC(CCC(N)=O)C(=O)NC(CCCCN)C(=O)NC(C(=O)NC(CCCCN)C(=O)NC(CC(N)=O)C(=O)NC(Cc1ccccc1)C(=O)NC(Cc1ccccc1)C(=O)NC(CCC(N)=O)C(=O)NC(CCCCN)C(=O)NC(CC(C)C)C(=O)O)C(C)CC (centres undefined) [GEKLKKIGQKIKNFFQKL]
 |  |  |  |  |  |  |  | 14.1 (≈ 33.7 µg/mL) | 0.707 (≈ 1.68 µg/mL) | 2.83 (≈ 6.74 µg/mL) | 0.707 (≈ 1.68 µg/mL) | 7.07 (≈ 16.8 µg/mL) | 1.41 (≈ 3.37 µg/mL) | 1.41 (≈ 3.37 µg/mL) | 12.6 (≈ 30.1 µg/mL) | 1.41 (≈ 3.37 µg/mL) | 1.41 (≈ 3.37 µg/mL) | 0.707 (≈ 1.68 µg/mL) | CC[C@H](C)[C@H](NC(=O)CN)C(=O)NCC(=O)N[C@@H](CCCCN)C(=O)N[C@@H](Cc1ccccc1)C(=O)N[C@@H](CC(C)C)C(=O)N[C@@H](CCCCN)C(=O)N[C@@H](CCCCN)C(=O)N[C@@H](C)C(=O)N[C@@H](CCCCN)C(=O)N[C@@H](CCCCN)C(=O)N[C@@H](Cc1ccccc1)C(=O)NCC(=O)N[C@@H](CCCCN)C(=O)N[C@@H](C)C(=O)N[C@@H](Cc1ccccc1)C(=O)N[C@H](C(=O)N[C@@H](CCCCN)C(=O)N[C@@H](CCSC)C(=O)N[C@@H](CCCCN)C(=O)N[C@@H](CCCCN)C(N)=O)C(C)C [GIGKFLKKAKKFGKAFVKMKK]
